Tests used:
Test in all cases: relative viability (nuclei count vs DMSO), 5 days (fraction); higher = more cells survive
[1] = compound: O=C(C[C@H]1NCCC[C@@H]1O)Cn1cnc2cc(Br)c(Cl)cc2c1=O (racemic) [Halofuginone] + CS(=O)(=O)N1CCN(Cc2cc3nc(-c4cccc5[nH]ncc45)nc(N4CCOCC4)c3s2)CC1 [Pictilisib] (partner 1 µM)
In short: (§1)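 Each reported value is a median over duplicate plates. It expresses relative viability: treated-well nuclei count divided by vehicle-well nuclei count. Lung cancer cell lines in 1536-well plates were dosed by pin tool a day after seeding, alone with one drug or with a fixed anchor-drug dose plus five library-drug doses (not always all listed) in √10 steps, and nuclei were counted after 5 days.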

[2] = compound: Nc1ncn([C@H]2C[C@H](O)[C@@H](CO)O2)c(=O)n1 [Decitabine] + CS(=O)(=O)N1CCN(Cc2cc3nc(-c4cccc5[nH]ncc45)nc(N4CCOCC4)c3s2)CC1 [Pictilisib] (partner 1 µM)
In short: as §1

[3] = compound: O=C(C[C@H]1NCCC[C@@H]1O)Cn1cnc2cc(Br)c(Cl)cc2c1=O (racemic) [Halofuginone] + C[C@]1(O)C[C@@H](c2nc(-c3ccc4ccc(-c5ccccc5)nc4c3)c3c(N)nccn32)C1 [Linsitinib] (partner 1 µM)
In short: as §1

[4] = compound: COc1cc2c(Oc3ccc4[nH]c(C)cc4c3F)ncnc2cc1OCCCN1CCCC1 [Cediranib] + O=C(c1cc(Cc2n[nH]c(=O)c3ccccc23)ccc1F)N1CCN(C(=O)C2CC2)CC1 [Olaparib] (partner 8 µM)
In short: as §1

UMC-11
relative viability ([1]; first compound 0.001 µM): 0.9 | relative viability ([1]; first compound 0.003162 µM): 0.76 | relative viability ([1]; first compound 0.01 µM): 0.772 | relative viability ([1]; first compound 0.03162 µM): 0.758 | relative viability ([1]; first compound 0.1 µM): 0.648 | relative viability ([2]; first compound 0.04 µM): 0.737 | relative viability ([2]; first compound 0.1265 µM): 0.794 | relative viability ([2]; first compound 0.4 µM): 0.315 | relative viability ([2]; first compound 1.265 µM): 0.335 | relative viability ([2]; first compound 4 µM): 0.271 | relative viability ([3]; first compound 0.001 µM): 1.09 | relative viability ([3]; first compound 0.003162 µM): 0.99 | relative viability ([3]; first compound 0.01 µM): 1.03 | relative viability ([3]; first compound 0.03162 µM): 0.963 | relative viability ([3]; first compound 0.1 µM): 0.752 | relative viability ([4]; first compound 0.04 µM): 0.373 | relative viability ([4]; first compound 0.1265 µM): 0.335 | relative viability ([4]; first compound 0.4 µM): 0.371 | relative viability ([4]; first compound 1.265 µM): 0.388 | relative viability ([4]; first compound 4 µM): 0.406

— the supplement of paper PMC10307832
